{"source": "ChEMBL document CHEMBL1201862", "about": "“PubChem BioAssay data set” (2004)", "key": {"[1]": {"biological_target": "T1, Rac GTPase-activating protein 1 (Homo sapiens, UniProt Q9H0H5)", "T1 sequence (Q9H0H5 whole entry)": "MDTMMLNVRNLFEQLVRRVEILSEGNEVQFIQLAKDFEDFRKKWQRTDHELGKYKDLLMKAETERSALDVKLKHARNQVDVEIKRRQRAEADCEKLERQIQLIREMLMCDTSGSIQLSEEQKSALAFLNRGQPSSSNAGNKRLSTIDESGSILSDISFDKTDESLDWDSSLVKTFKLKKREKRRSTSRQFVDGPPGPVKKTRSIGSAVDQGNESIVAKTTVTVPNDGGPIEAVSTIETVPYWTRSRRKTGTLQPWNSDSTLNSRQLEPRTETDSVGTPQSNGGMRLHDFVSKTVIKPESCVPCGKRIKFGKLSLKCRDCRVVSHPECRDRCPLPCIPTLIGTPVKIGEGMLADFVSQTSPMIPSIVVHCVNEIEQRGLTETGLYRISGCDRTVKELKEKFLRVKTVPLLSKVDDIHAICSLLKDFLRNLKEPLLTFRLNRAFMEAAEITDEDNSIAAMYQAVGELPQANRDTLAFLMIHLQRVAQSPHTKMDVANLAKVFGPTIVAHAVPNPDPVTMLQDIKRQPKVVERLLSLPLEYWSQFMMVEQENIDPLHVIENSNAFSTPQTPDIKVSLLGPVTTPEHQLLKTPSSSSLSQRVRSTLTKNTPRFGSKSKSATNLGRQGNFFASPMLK", "assay": "blockers of MgcRacGAP-driven Rac1 GTP hydrolysis – biochemical, ADP Hunter fluorescence, primary and confirmatory, confirmation (AID 624330)", "format": "functional"}, "[2]": {"assay": "loss of viability in HepG2 cells – cell-based, CellTiter-Glo, cherry-picked, cytotoxicity control for Shn3 inhibitor project, dose response (AID 624134)", "format": "functional"}, "INS1": {"tested_on": "INS1", "assay": "INS-1E survival protection against cytokine death – cell-based, luminescence, retest, dose response (AID 449756);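 note: cell death triggered by IL-1 beta plus TNF-alpha plus IFN-gamma mixture; protective hits raise ATP signal compared with cytokine alone wells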", "format": "functional", "conditions": "Rattus norvegicus"}, "[3]": {"assay": "reduction of Shn3 3'UTR-driven luciferase in osteoblasts – cell-based, Clone20 osteoblasts, firefly luciferase, cherry-picked, dose response (AID 624132)", "format": "functional"}, "[4]": {"assay": "non-specific 3'UTR reporter inhibition in Clone20-Shn3RL – cell-based, Renilla luciferase, cherry-picked, counter-screen for Shn3 inhibitor project, dose response (AID 624133)", "format": "functional"}, "[5]": {"assay": "Luminescence Cell-Based Dose Confirmation HTS to Identify Activators of 5'UTR Stem-Loop Driven Alpha-Synuclein mRNA Translation in H4 Neuroglioblastoma Cells. [Related pubchem assays: 1829 (Project Summary), 1814 (Primary HTS)]", "format": "functional"}, "H4": {"tested_on": "H4", "assay": "Luminescence Cell-Based Dose Response HTS to Identify Activators of 5'UTR Stem-Loop Driven Prion Protein mRNA Translation in H4 Neuroglioblastoma Cells. [Related pubchem assays: 1829 (Project Summary), 1814 (Primary HTS)]", "format": "functional", "conditions": "Homo sapiens"}, "[6]": {"assay": "Luminescence Cell-Based Dose Response HTS to Identify Activators of Luciferase Translation or Activity in H4 […] Cells. [Related pubchem assays: 1829 (Project Summary), 1814 (Primary HTS)]", "format": "functional"}, "Large T antigen": {"biological_target": "Large T antigen (Simian virus 40, UniProt P03070)", "sequence (P03070 whole entry)": "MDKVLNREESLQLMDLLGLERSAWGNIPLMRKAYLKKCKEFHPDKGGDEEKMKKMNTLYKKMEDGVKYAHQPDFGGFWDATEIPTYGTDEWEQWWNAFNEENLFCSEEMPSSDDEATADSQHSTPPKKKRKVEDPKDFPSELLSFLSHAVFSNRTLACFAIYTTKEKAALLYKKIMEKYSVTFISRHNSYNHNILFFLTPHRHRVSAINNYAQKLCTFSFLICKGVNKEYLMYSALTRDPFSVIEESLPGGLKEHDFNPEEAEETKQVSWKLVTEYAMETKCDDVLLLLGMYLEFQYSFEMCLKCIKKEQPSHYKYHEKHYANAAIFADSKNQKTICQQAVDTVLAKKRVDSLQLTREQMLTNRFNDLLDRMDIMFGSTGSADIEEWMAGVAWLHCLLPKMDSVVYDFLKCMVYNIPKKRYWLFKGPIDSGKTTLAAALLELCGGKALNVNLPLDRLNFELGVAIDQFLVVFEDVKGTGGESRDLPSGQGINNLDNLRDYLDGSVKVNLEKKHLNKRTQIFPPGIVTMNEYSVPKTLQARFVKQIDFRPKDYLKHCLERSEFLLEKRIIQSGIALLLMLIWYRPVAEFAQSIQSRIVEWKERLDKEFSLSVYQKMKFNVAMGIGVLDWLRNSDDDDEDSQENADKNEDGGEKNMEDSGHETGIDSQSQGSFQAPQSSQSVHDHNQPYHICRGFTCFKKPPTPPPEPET", "format": "functional, Betapolyomavirus macacae"}, "[7]": {"assay": "NIH-3T3 fibroblast cytotoxicity, dose response, cytotoxicity control, cell-based, fluorescence, Alamar Blue, secondary assay (AID 2327);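 note: NIH-3T3 mouse fibroblasts cultured with fluconazole at 8 µg/mL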", "format": "functional"}, "[8]": {"assay": "fluconazole-exposed Candida albicans growth modulators – fluorescence, retest, confirmation (AID 2467)", "format": "functional, cell-based"}, "[9]": {"assay": "luciferase reporter signal suppression in cells – H4 neuroglioma cells, luminescence, dose response (AID 1990)", "format": "functional, cell-based"}, "[10]": {"assay": "Luminescence Cell-Based Dose Response HTS to Identify Inhibitors of 5'UTR Stem-Loop Driven Prion Protein mRNA Translation in H4 Neuroglioblastoma Cells. [Related pubchem assays: 1827 (Project Summary), 1813 (Primary HTS)]", "format": "functional"}, "[11]": {"assay": "alpha-synuclein stem-loop luciferase translation blockers – H4 neuroglioma cells, luminescence, confirmation (AID 1988)", "format": "functional, cell-based"}, "[12]": {"assay": "Trypanosoma cruzi growth suppression in host cells – NIH3T3 host cells, beta-gal luminescence, confirmation (AID 2044);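 note: intracellular parasites grown in NIH/3T3 mouse fibroblasts as host cells; luminescent beta-galactosidase reporter signal from transgenic T. cruzi replicating inside host cells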", "format": "functional, cell-based"}, "[13]": {"assay": "NIH3T3 cell viability loss – ATP luminescence, mouse fibroblasts, counter-screen, dose response (AID 2010);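 note: cells exposed to compound for about 90 hours before reading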", "format": "functional, cell-based"}, "[14]": {"biological_target": "T2, Corticotropin-releasing factor receptor 2/Corticotropin-releasing factor-binding protein (Homo sapiens, UniProt P24387+Q13324)", "T2 sequence (Q13324 whole entry)": "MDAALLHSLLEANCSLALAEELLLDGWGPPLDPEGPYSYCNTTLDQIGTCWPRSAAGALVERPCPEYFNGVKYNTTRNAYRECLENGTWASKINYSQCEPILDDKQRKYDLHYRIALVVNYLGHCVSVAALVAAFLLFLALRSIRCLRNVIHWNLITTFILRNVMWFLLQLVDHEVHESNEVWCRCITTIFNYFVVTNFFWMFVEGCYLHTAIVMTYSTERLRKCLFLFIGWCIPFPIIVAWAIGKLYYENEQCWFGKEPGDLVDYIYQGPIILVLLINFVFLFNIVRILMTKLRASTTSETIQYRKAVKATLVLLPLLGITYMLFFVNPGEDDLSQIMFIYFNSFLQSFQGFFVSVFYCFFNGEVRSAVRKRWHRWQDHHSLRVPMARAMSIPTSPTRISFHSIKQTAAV", "T2 sequence (P24387 whole entry)": "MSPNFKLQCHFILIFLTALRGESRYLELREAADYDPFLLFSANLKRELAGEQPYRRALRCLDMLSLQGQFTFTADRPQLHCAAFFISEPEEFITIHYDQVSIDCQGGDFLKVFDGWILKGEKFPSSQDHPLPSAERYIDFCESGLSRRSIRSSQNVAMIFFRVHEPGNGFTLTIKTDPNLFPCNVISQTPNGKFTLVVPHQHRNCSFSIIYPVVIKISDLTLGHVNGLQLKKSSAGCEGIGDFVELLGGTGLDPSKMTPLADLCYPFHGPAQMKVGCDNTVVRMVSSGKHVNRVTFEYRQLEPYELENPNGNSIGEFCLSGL", "assay": "activators of CRF receptor 2 with binding protein – uHTS hits, confirmation (AID 602473)", "format": "functional", "conditions": "read-out: EC50_Mean"}}, "note": "Calls of active or inactive are those of the source. Cut-off read from the data, not from the text of the source, for most assays here: actives have a measured EC50 and inactives only a lower limit.", "data": [{"smiles": "O=c1c2ccccc2nc(/C=C/c2ccc(O)cc2)n1-c1ccccc1O", "values": [{"measurement": "IC50", "setting": "[1]", "result": "62.5 µM (active)"}]}, {"smiles": "Cc1ccc(NC(=O)Cc2nn(C)c(=O)c3ccccc23)cc1F", "values": [{"measurement": "AC50", "setting": "[2]", "result": "3.46 µM (active)"}, {"measurement": "AC50", "setting": "INS1", "result": "3.98 µM (active)"}, {"measurement": "AC50", "setting": "[3]", "result": "730 nM (active)"}, {"measurement": "AC50", "setting": "[4]", "result": "2.3 µM (active)"}]}, {"smiles": "Oc1nc(COc2ccc(Cl)cc2Cl)nc2ccccc12", "values": [{"measurement": "EC50", "setting": "[5]", "result": "0.125 µM (active)"}, {"measurement": "EC50", "setting": "H4", "result": "0.148 µM (active)"}, {"measurement": "EC50", "setting": "[6]", "result": "0.107 µM (active)"}]}, {"smiles": "Cc1cc(-c2cc(C)c(N)c(C)c2)cc(C)c1N", "values": [{"measurement": "IC50", "setting": "[1]", "result": "10.8 µM (active)"}]}, {"smiles": "CC(C)C(OC(=O)c1ccccc1)c1nccc2ccccc12", "note": "(stereo unspecified)", "values": [{"measurement": "EC50", "setting": "[5]", "result": "21.5 µM (active)"}, {"measurement": "EC50", "setting": "H4", "result": "39.5 µM (active)"}, {"measurement": "EC50", "setting": "[6]", "result": "17.8 µM (active)"}]}, {"smiles": "CCc1ccc(OC(=O)Nc2ccccc2)cc1", "values": [{"measurement": "EC50", "setting": "[5]", "result": "6.4 µM (active)"}, {"measurement": "EC50", "setting": "H4", "result": "7.7 µM (active)"}, {"measurement": "EC50", "setting": "[6]", "result": "> 120 µM (not active)"}]}, {"smiles": "CCN(CC)S(=O)(=O)c1cccc(NC(=O)CNC2CCCCCC2)c1", "values": [{"measurement": "IC50", "setting": "[1]", "result": "185 µM (active)"}]}, {"smiles": "Nc1ccc(N=Nc2ccc(N)cc2)cc1", "values": [{"measurement": "IC50", "setting": "[1]", "result": "22 µM (active)"}]}, {"smiles": "O=C(Nc1ccc(-c2cn3c(n2)SCC3)cc1)c1ccc2ccccc2n1", "values": [{"measurement": "EC50", "setting": "[5]", "result": "15.5 µM (active)"}, {"measurement": "EC50", "setting": "H4", "result": "16.8 µM (active)"}, {"measurement": "EC50", "setting": "[6]", "result": "24 µM (active)"}]}, {"smiles": "CN(C)/C=C(\\C#N)C(=O)Nc1ccc(O)cc1F", "values": [{"measurement": "IC50", "setting": "Large T antigen", "result": "17.6 µM (active)"}]}, {"smiles": "Cc1ccc(-c2c[n+](-c3ccc(OC(F)F)cc3)c3n2CCCCC3)cc1", "values": [{"measurement": "AC50", "setting": "INS1", "result": "1.52 µM (active)"}, {"measurement": "EC50", "setting": "[7]", "result": "> 150 µM (inconclusive)"}, {"measurement": "EC50", "setting": "[8]", "result": "> 38 µM (not active)"}]}, {"smiles": "CCS(=O)(=O)C1=NN2C(=N)/C(=C\\c3ccc(OC(=O)c4ccco4)c(Br)c3)C(=O)N=C2S1", "values": [{"measurement": "IC50", "setting": "Large T antigen", "result": "> 100 µM (active)"}]}, {"smiles": "Cc1cc(NC(=O)c2cccnc2)ccc1NC(=O)c1cc2ccccc2o1", "values": [{"measurement": "EC50", "setting": "[9]", "result": "18.6 µM (active)"}, {"measurement": "EC50", "setting": "[10]", "result": "17.7 µM (active)"}, {"measurement": "EC50", "setting": "[11]", "result": "20.6 µM (active)"}]}, {"smiles": "Cc1nnsc1-c1c(C(=O)Oc2ccccc2)c(C)nn1-c1ccccc1", "values": [{"measurement": "EC50", "setting": "[9]", "result": "18.8 µM (active)"}, {"measurement": "EC50", "setting": "[10]", "result": "> 120 µM (not active)"}, {"measurement": "EC50", "setting": "[11]", "result": "19.8 µM (active)"}]}, {"smiles": "O=C(Nc1ncc(S(=O)(=O)c2ccc([N+](=O)[O-])cc2)s1)c1cccc2ccccc12", "values": [{"measurement": "EC50", "setting": "[12]", "result": "221 nM (active)"}, {"measurement": "EC50", "setting": "[13]", "result": "> 60 µM (not active)"}, {"measurement": "EC50", "setting": "[14]", "result": "4.23 µM (active)"}]}, {"smiles": "CC(C)OC(=O)Cn1nnc2c(cnn2-c2ccccc2)c1=O", "values": [{"measurement": "EC50", "setting": "[5]", "result": "13.4 µM (active)"}, {"measurement": "EC50", "setting": "H4", "result": "20.7 µM (active)"}, {"measurement": "EC50", "setting": "[6]", "result": "13.1 µM (active)"}]}, {"smiles": "OCC1CCCN(C(=S)Nc2ccc(Nc3ccccc3)cc2)C1", "note": "(stereo unspecified)", "values": [{"measurement": "IC50", "setting": "[1]", "result": "41.8 µM (active)"}, {"measurement": "IC50", "setting": "Large T antigen", "result": "8.16 µM (active)"}]}, {"smiles": "Cc1ccc(Nc2nc(=O)c3cccnc3s2)cc1", "values": [{"measurement": "EC50", "setting": "H4", "result": "> 120 µM (not active)"}, {"measurement": "EC50", "setting": "[6]", "result": "2.71 µM (active)"}]}, {"smiles": "CC(=O)OCC1OC(n2cc(F)c(=O)[nH]c2=O)C(OC(C)=O)C1OC(C)=O", "note": "(stereo unspecified)", "values": [{"measurement": "EC50", "setting": "[5]", "result": "> 120 µM (not active)"}, {"measurement": "EC50", "setting": "H4", "result": "> 120 µM (not active)"}, {"measurement": "EC50", "setting": "[6]", "result": "117 µM (active)"}]}, {"smiles": "Cc1nn(-c2ccccn2)c2c1-c1nc(N)ncc1CC2", "values": [{"measurement": "EC50", "setting": "[5]", "result": "12.3 µM (active)"}, {"measurement": "EC50", "setting": "[6]", "result": "1.98 µM (active)"}]}]}
